Data: patent US11266710B2, “Angio-3 for treatment of retinal angiogenic diseases” (SINGAPORE HEALTH SERVICES PTE LTD, priority 2017, dated 2022)
Where no end group is shown, it is not given here. [ ]: non-standard residue; d: D form. hArg = N=C(N)NCCCC[C@H](N)C(=O)O

What was measured:
HRMEC cells [1] = experiment: VEGF induced proliferation of HRMEC cells (Alamar-Blue); format: cell-based; conditions: 300 μg/ml; 10 ng/ml or 50 ng/ml VEGF165; 3 days
Experimental: 2000 HRMEC cells were seeded in 96-well plates in 100 μl of media and placed in a CO2 incubator at 37° C. To evaluate the effect the compounds have on VEGF-induced HRMEC proliferation, cells were treated with 10 ng/ml VEGF165 or 50 ng/ml VEGF165 in the presence of different concentrations of Angio-3 after serum starved in EBM-2 supplemented with 0.5% FBS overnight. 300 μg/ml Avastin was used as a positive control. Alamar-Blue assay was performed after 3 days of treatment.

HRMEC cells [2] = experiment: HRMEC transwell migration assay; format: cell-based; conditions: 300 μg/ml; 50 ng/ml VEGF165; overnight
Experimental: Transwell migration assays were performed in a 24-well cells culture plate containing 8.0 μm pore size inserts. HRMEC cells were serum starved overnight prior of assay. The lower chamber were filled with EBM-2, EBM-2 supplemented with 50 ng/ml VEGF165 plus different concentrations of inhibitors. 1×10^5 Cells in EBM-2 were seeded in the upper chamber. Cells were allowed to migrate to the other side of membrane for overnight at 37° C. Cells on top of the membrane were wiped off and cells migrated to the other side were fixed and stained with 0.4% crystal violet. Cell numbers were counted under a 10× objective for 5 randomly selected fields.

[3] = system: laser-induced CNV in C57/BL6J (B6J) wild type mice; experiment: Laser-induced choroidal neovascularization (CNV) model in mice, area of leakage by FFA; format: in vivo; conditions: for Area of Leakage (mean) Week 1 / Area of Leakage (mean) Week 4: laser-induced CNV mice; for Area of Leakage (mean) Week 1 / Area of Leakage (mean) Week 4 / choroidal angiogenesis: prevention mode; for % Reduction (area of leakage): vehicle control = 0%; for choroidal angiogenesis: B6J mice, single intravitreal injection at dose 100 ng, 1 g, and 5 μg
Experimental: FIG. 3A is a schematic of the experimental design on the efficacy of Angio-3 in a laser-induced choroidal neovascularization (CNV) model in mice (B6J WT mice). FIG. 3B are FFA images of baseline and at different time points post treatment. IV single injection of 100 μL of Angio-3 (25 mg/Kg Bwt) was given at Day 0 (prevention mode) and 4 days after laser (regression mode) and followed for 10 weeks. FIG. 3C is a graph showing the area of leakage by each eye for various groups. FIG. 3D are graphs of the mean area of leakage of all batches for each group. […] The attenuation retinal vascularization was better than scrambled peptide. n=6 eyes per batch; n=3 batches. Values are expressed as means±s.e.m., **P<0.01, *P<0.05, student's t-test. FIG. 3E is a graph of the result of the Retinal Function Test that measures ERG changes in Angio-3 treated and control.
FIG. 4A is a schematic of the experimental design on the efficacy of Angio-3 by IVT administration. […]
FIG. 11 A are FFA images of baseline and at different time points post treatment. Mice received single IVT injection of Angio-3 (at a dose of 1 μg in 1 μl or 100 ng in 1 μl), and chemically modified Angio-3 peptides Pep-N (at doses of 5 μg in μl; 1 μg in μl; and 100 ng in 1 μl, respectively) and Pep-Q peptides (at doses of 5 μg in μl; 1 μg in μl; and 100 ng in 1 μl, respectively). FIG. 11 B is a graph of the area of leakage by each eye. Single dose attenuates retinal angiogenesis in laser-induced mice CNV model via IVT route till 4 weeks. […] Eylea is the positive control. n=18 eyes per group; Values are expressed as means±s.e.m. n=3 independent experiment, **P<0.01, *P<0.05, student's t-test.
Laser induced choridal neo-vascularization (CNV) in C57/BL6J (B6J) wild type mice (n=90).
In B6J mice, single injection of 100 μl volume at 25 mg/kg Bwt concentration Angio-3 was injected via intravenous (i/v) route and this was tested in both Preventive mode (before laser) and Regression mode (4 days after laser). […]
Angio-3 was also injected via intravitreal (IVT) route, single injection of 1 μl volume at 2 different doses; 1 μg (High dose) and 100 ng (Low dose).
4 laser photocoagulation sites were placed concentrically around the optic disc of both eyes to induce CNVs. A diode laser (810 nm) was used with a relative potency scale of 120 mW for mice and 250 mW for rats, an exposure time of 0.05 s, and a spot size of […]. Laser spots were focused with crystal covers to avoid laser beam dispersion. Bubble formation was confirmed the rupture of Bruch's membrane.
Fundus photography and fundus fluorescein angiography (FFA) was imaged using a MICRON IV fundus camera (Phoenix Laboratories USA). For FFA, animals were intraperitoneally injected with 10% sodium fluorescein at a dose of 0.01 ml per 5-6 gm body weight.
In B6J mice, single intravitreous (IVT) injection of 100 ng, 1 μg, 5 μg PEP-Q, PEP-N (modified Angio-3), Angio-3 and Eylea were executed and this was tested in Prevention mode (before laser) Method of Llser induced CNV model and injection was described as above.

[4] = system: corneal neovascularization after alkali-burn injury in mice; experiment: Corneal neovascularization after alkali-burn injury in mice; format: in vivo, mouse; conditions: 1% solution topically 3×/day for 7 days; vs vehicle control
Experimental: Mice were anesthetized with the combination of 80 mg/kg ketamine and 5 mg/kg xylazine. One drop of 1% xylocaine was applied to the corneal surface for local analgesia. Round piece of filter paper, approximately 2 mm in diameter was soaked in a solution of 1 M NaOH. A piece of NaOH soaked filter paper was picked by sterile forceps. NAOH soaked filter paper was placed on the central cornea under microscope to ensure properly placing the filter paper. Left it for 30 sec to generate an acute alkali-burn of approximately 2×2 mm^2 in area. Filter paper was removed and then gently flushed the eye with 10 ml of 1×PBS twice to wash away residual 1 M NaOH. Only one eye of the mouse was injured and the other serving as a control. A drop of 1× Peptide Q (1% solution as test compound) or a vehicle control consisting of PBS was topically applied to the cornea. Repeated application occurred 3×/day for 7 days. At end point, clinical assessment was done as stated below and eyes were enucleated for corneal flat mount.
A daily examination of the mice in a blinded fashion was performed under a surgical microscope and score corneal neo-vascularization (NV) was based on corneal opacity, NV and vessel size. Two observers were scored and record a final score that was the average of the two. Score corneal opacity on a scale of 0-4. […]

[5] = system: laser-induced CNV in Cynomolgus monkeys; experiment: Laser-induced CNV model in Cynomolgus monkeys (wet AMD model); format: in vivo, Cynomolgus monkey; conditions: 2 mg Angio-3, 2 mg and 4 mg PeptideQ, 2 mg Eylea, single IVT
Experimental: FIGS. 25A, 25B, 25C, 25D, 25E, and 25F show the results of testing in a laser-induced chorodial neovascularization (CNV) model in Cynomolgus moneys developed as an experimental model of wet AMD. FIG. 25A is a schematic of the study design. FIG. 25B are representative fundus fluorescein angiography (FFA) images of all groups. FIG. 25C is a graph showing change in mean lesion grade of the eye in monkeys treated with a single dose 2 mg of Angio-3, dose 2 mg of anti-VEGF (Eylea), 2 mg of peptide (Q2) and 4 mg of peptide (Q4) and control. […] FIG. 25E is a graph of laser area quantified from the FFA images by ImageJ software. FIG. 25F are graphs of laser volume quantified from PS-OCT images by ImageJ software.
A laser-induced choroidal neovascularization (CNV) model was developed and validated in Cynomolgus monkeys as experimental model of wet AMD. […] The development of active CNV was assessed by fluorescein angiography, at Day 14 the baseline degree of neovascularization and leakiness were measured and the final fluorescein angiography assessment was performed on Day 28. Leakage area was quantified by ImageJ software. The laser volume was quantified by Spectralis-Heidelberg software using SD-OCT images.

Substance	VEGF induced HRMEC proliferation (HRMEC cells [1])	VEGF induced HRMEC migration (HRMEC cells [2])	Area of Leakage (mean) Week 1 ([3]; 100 ng single IVT)	Area of Leakage (mean) Week 4 ([3]; 100 ng single IVT)	% Reduction (area of leakage) ([3]; 100 ng single IVT) [%]	Area of Leakage (mean) Week 1 ([3]; 1 μg single IVT)	Area of Leakage (mean) Week 4 ([3]; 1 μg single IVT)	% Reduction (area of leakage) ([3]; 1 μg single IVT) [%]	Area of Leakage (mean) Week 1 ([3]; 5 μg single IVT)	Area of Leakage (mean) Week 4 ([3]; 5 μg single IVT)	% Reduction (area of leakage) ([3]; 5 μg single IVT) [%]	choroidal angiogenesis [3]	corneal NV area seven days after alkali-burn injury [4]	comparative efficacy between treatment groups [5]
bevacizumab [Avastin]	sufficient to inhibit VEGF induce proliferation	completely blocked	–	–	–	–	–	–	–	–	–	–	–	–
Thr Pro His Thr His Gln Xaa Thr Pro Glu, wherein Xaa is homoarginine (TPHTHQ[hArg]TPE) [PEP-Q, chemically modified Angio-3 peptide]	–	–	9987.09	1283.52	48.96	13444.14	1271.30	52.36	12839.27	742.03	56.04	significantly attenuates the choroidal angiogenesis	significantly reduced corneal NV area	dose dependent efficacy and higher dose efficacy close to Eylea
Thr Pro His Thr His Asn Xaa Thr Pro Glu, wherein Xaa is homoarginine (TPHTHN[hArg]TPE) [PEP-N, chemically modified Angio-3 peptide]	–	–	11287.40	2237.13	42.00	12808.95	2402.54	43.06	8251.43	749.71	52.73	significantly attenuates the choroidal angiogenesis	–	–
